Test results published in PMC6792352, “Limited Chemical Structural Diversity Found to Modulate Thyroid Hormone Receptor in the Tox21 Chemical Library” (Environmental Health Perspectives, 2019).
Structures can show the parent of a compound that is named as a salt.

test: in vitro; settings: rat, gh3-tre-luc cells, AC50 (uM) modified / 1000

SMILES	CC50 at 24 h [µM]
CC1(C)S[C@@H]2[C@H](NC(=O)COc3ccccc3)C(=O)N2[C@H]1C(=O)O [Penicillin VK]	> 90
NC(N)=NN=C(/C=C/c1ccc([N+](=O)[O-])o1)/C=C/c1ccc([N+](=O)[O-])o1 [Nitrovin]	1.82
O=C1[C@H]2CCCC[C@H]2C(=O)N1CCCCN1CCN(c2nsc3ccccc23)CC1 [Perospirone hydrochloride]	21
O=C(O)c1cc(-c2ccccc2)nc2ccccc12 [Cinchophen]	> 50
C[C@@H](NCCc1ccc(O)cc1)[C@@H](O)c1ccc(O)cc1 (racemic) [Ritodrine hydrochloride]	> 50
c1ccc2nc(N3CCNCC3)ccc2c1 [Quipazine maleate]	36.9
Cc1ccc(O)c(C)c1 [2,4-Dimethylphenol]	> 90
Nc1ccc(C(=O)OCCCOC(=O)c2ccc(N)cc2)cc1 [Propane-1,3-diyl bis(4-aminobenzoate)]	> 90
C[C@]12CCC(=O)C=C1C=C[C@@H]1[C@@H]2CC[C@@]2(C)[C@H]1CC[C@@]21CCC(=O)O1 [Canrenone]	> 50
CO[C@H]1C[C@@H]2CC[C@@H](C)[C@@](O)(O2)C(=O)C(=O)N2CCCC[C@H]2C(=O)O[C@H]([C@H](C)C[C@@H]2CC[C@@H](OCCO)[C@H](OC)C2)CC(=O)[C@H](C)/C=C(\C)[C@@H](O)[C@@H](OC)C(=O)[C@H](C)C[C@H](C)/C=C/C=C/C=C/1C [Everolimus]	0.00998
N[C@@H](C(=O)N[C@@H]1C(=O)N2C(C(=O)O)=C(Cl)CS[C@H]12)c1ccccc1 [Cefaclor]	> 50
CCOc1cc(C(C)(C)C)ccc1C1COC(c2c(F)cccc2F)=N1 (stereo not drawn) [Etoxazole]	17.5
O=C1Nc2ccc(Cl)cc2C(c2ccccc2)=NC1O (stereo not drawn) [Oxazepam]	> 80
O=C(CCCN1CCN(c2ccc(F)cc2)CC1)NC1c2ccccc2CSc2ccccc21 (stereo not drawn) [Monatepil]	11.9
CC(=O)SCC(Cc1ccccc1)C(=O)NCC(=O)OCc1ccccc1 (stereo not drawn) [Racecadotril]	> 20
CCCCCC/C(C=O)=C\c1ccccc1 [Hexyl cinnamic aldehyde]	> 90
NC(=O)C1(N2CCCCC2)CCN(CCCC(=O)c2ccc(F)cc2)CC1 [Pipamperone dihydrochloride]	> 50
Clc1ccc2[nH]nnc2c1 [5-Chlorobenzotriazole]	> 90
Cc1cccc([N+](=O)[O-])c1C [1,2-Dimethyl-3-nitrobenzene]	> 90
CC(C)(C)c1cc(Cc2cc(C(C)(C)C)c(O)c(C(C)(C)C)c2)cc(C(C)(C)C)c1O [4,4'-Methylenebis(2,6-di-t-butylphenol)]	> 90
CC(C)=CCC/C(C)=C/CC/C(C)=C/CO [Farnesol]	68.1
C[N@+]12CCCC[C@@H]1CCC(=C(c1cccs1)c1cccs1)C2 (racemic) [Tiquizium bromide]	> 50
OCc1ccccc1 [Benzyl alcohol]	> 90

SMILES	CC50 at 24 h [µM]
CC1=CC(=O)CC(C)(C)[C@@]1(O)/C=C/C(C)=C\C(=O)O [Abscisic acid]	> 90
O=C(OC(=O)c1ccccc1)c1ccccc1 [Benzoic anhydride]	> 90
CN1COCN(Cc2cnc(Cl)s2)/C1=N/[N+](=O)[O-] [Thiamethoxam]	> 90
Cc1cccc(O)c1N [2-Amino-m-cresol]	66.6
Nc1ccc2c(O)cc(S(=O)(=O)O)cc2c1 [7-Amino-4-hydroxynaphthalene-2-sulfonic acid]	89.3
Cc1ncc([C@@H](CCCCCCc2ccc3c(n2)NCCC3)CC(=O)O)cn1 [PharmaGSID_47333]	> 90
CCCCC/C(=C\c1ccccc1)CO [alpha-Amylcinnamyl alcohol]	46.6
CC(C)CCCC(C)CCO (stereo not drawn) [3,7-Dimethyloctan-1-ol]	> 90
Cl[C@@H]1OCCO[C@H]1Cl [2,3-Dichloro-p-dioxane]	> 90
CC(=O)C(=O)CC(C)C [5-Methyl-2,3-hexanedione]	> 90
CC(C)c1nc(N(C)S(C)(=O)=O)nc(-c2ccc(F)cc2)c1/C=C/[C@@H](O)C[C@@H](O)CC(=O)O [Rosuvastatin calcium]	> 50
CCOC(=O)c1cc(-c2ccccc2)nc2ccc(C)cc12 [Neocinchophen]	44.6
FC(F)(F)COCC(F)(F)F [Flurothyl]	> 50
O=C(O)c1cccc(O)c1 [3-Hydroxybenzoic acid]	> 90
NC(=S)NNC(N)=S [2,5-Dithiobiurea]	> 90
C=CC(=O)OC(C)(C)C [tert-Butyl acrylate]	> 90
N=C1N=C(N)c2cc3ccccc3cc21 [1,3-Diiminobenz(f)isoindoline]	39.2
ClCCOCCOCCCl [1,2-Bis(2-chloroethoxy)ethane]	> 90
CC(C)N(Cc1ccccc1)C(=O)C(C)(C)C [Butam]	> 90
CCCCCCCCCCCC(C)=O [2-Tridecanone]	> 90
O=C/C=C/c1ccccc1 [3-Phenylprop-2-enal]	> 90
O=C1NCCN1c1ncc([N+](=O)[O-])s1 [Niridazole]	> 20
CCCCCCCCCCCCCCCC(=O)OC(C)C [Hexadecanoic acid, 1-methylethyl ester]	> 50

SMILES	CC50 at 24 h [µM]
CCc1nn(C)c(C(=O)NCc2ccc(C(C)(C)C)cc2)c1Cl [Tebufenpyrad]	53.4
CN1CCN(C(c2ccccc2)c2ccc(Cl)cc2)CC1 (stereo not drawn) [Chlorcyclizine hydrochloride]	4.39
CC#CCC(C)[C@H](O)/C=C/[C@@H]1[C@H]2c3cccc(CCCC(=O)O)c3O[C@H]2C[C@H]1O (mixture of isomers) [Beraprost sodium]	> 50
CN1[C@@H](CC(=O)c2ccccc2)CCC[C@H]1C[C@H](O)c1ccccc1 [Lobeline]	> 50
CN1[C@@H]2CC[C@H]1CC(OC(c1ccccc1)c1ccccc1)C2 (stereo partly drawn) [Benztropine methylsulfonate]	20.1
CC(C)OP(=O)(CP(=O)(OC(C)C)OC(C)C)OC(C)C [Tetraisopropyl methylenediphosphonate]	> 90
CN1CCOCC1 [4-Methylmorpholine]	> 90
CC(=O)c1ccc(O)cc1 [4-Hydroxyacetophenone]	> 90
O=C(OC[C@H]1O[C@](O)(COC(=O)c2cccnc2)[C@@H](OC(=O)c2cccnc2)[C@@H]1OC(=O)c1cccnc1)c1cccnc1 [Nicofuranose]	> 50
CCCCCCCCCCl [1-Chlorononane]	> 90
O=C(OCc1ccccc1)c1ccccc1 [Benzyl benzoate]	> 90
CC(=O)Nc1ccc(C)c(Cl)c1 [N-(3-Chloro-4-methylphenyl)acetamide]	> 90
C[C@H](CS)C(=O)N1CCC[C@H]1C(=O)O [Captopril]	> 50
CC1(C)[C@@H](O[C@H]2O[C@H](C(=O)O)[C@@H](O)[C@H](O)[C@H]2O[C@@H]2O[C@H](C(=O)O)[C@@H](O)[C@H](O)[C@H]2O)CC[C@]2(C)[C@H]3C(=O)C=C4[C@@H]5C[C@@](C)(C(=O)O)CC[C@]5(C)CC[C@@]4(C)[C@]3(C)CC[C@@H]12 [Ammonium glycyrrhizinate trihydrate]	> 70
C#CCOC(C(=O)OCCN(C)C)(c1ccccc1)c1ccccc1 [Pargeverine hydrochloride]	> 50
CC(c1ccc(O)cc1)c1ccc(O)cc1 [Bisphenol E]	> 90
CCCCCCCC/C=C\CCCCCCCC(=O)OCC [Ethyl oleate]	> 90
Oc1c(Br)c(Br)c(Br)c(Br)c1Br [Pentabromophenol]	33.5
CC(C)=CCOC(=O)c1ccccc1 [3-Methyl-2-butenyl benzoate]	> 90
CSCC[C@H](NC(=O)[C@H](Cc1c[nH]c2ccccc12)NC(=O)CCNC(=O)OC(C)(C)C)C(=O)N[C@@H](CC(=O)O)C(=O)N[C@@H](Cc1ccccc1)C(N)=O [Pentagastrin]	> 50
O=[N+]([O-])c1ccc(O/N=C/c2cc(Br)c(O)c(Br)c2)c([N+](=O)[O-])c1 [Bromofenoxim]	26
C#CC(C)(O)CC(C)C (stereo not drawn) [3,5-Dimethyl-1-hexyn-3-ol]	> 90
O=S(=O)(O)CO [Sodium hydroxymethanesulfonate]	> 90

same assay, conditions: rat, gh3-tre-luc cells, AC50 (uM) modified / 1000, Tox21_110001=Tox21_111614; viability, 1 nM T3 present, 24 h

SMILES	CC50 at 24 h [µM]
OC(O)C(Cl)(Cl)Cl [Chloral hydrate]	> 50

same assay, conditions: rat, gh3-tre-luc cells, AC50 (uM) modified / 1000, Tox21_110001=Tox21_200110; viability, 1 nM T3 present, 24 h

SMILES	CC50 at 24 h [µM]
OC(O)C(Cl)(Cl)Cl [Chloral hydrate]	> 90

same assay, conditions: rat, gh3-tre-luc cells, AC50 (uM) modified / 1000, Tox21_110001=Tox21_200290; viability, 1 nM T3 present, 24 h

SMILES	CC50 at 24 h [µM]
ClC1=C(Cl)C2(Cl)C3C(Cl)C(Cl)CC3C1(Cl)C2(Cl)Cl (stereo not drawn) [Technical chlordane]	27.8

same assay, conditions: rat, gh3-tre-luc cells, AC50 (uM) modified / 1000, Tox21_110001=Tox21_200376; viability, 1 nM T3 present, 24 h

SMILES	CC50 at 24 h [µM]
Nc1ccc(-c2ccccc2)cc1 [4-Biphenylamine]	> 90

same assay, conditions: rat, gh3-tre-luc cells, AC50 (uM) modified / 1000, Tox21_110001=Tox21_201486; viability, 1 nM T3 present, 24 h

SMILES	CC50 at 24 h [µM]
Cn1c(-c2ccccc2)cc(-c2ccccc2)[n+]1C [Difenzoquat metilsulfate]	> 90

same assay, conditions: rat, gh3-tre-luc cells, AC50 (uM) modified / 1000, Tox21_110001=Tox21_201491; viability, 1 nM T3 present, 24 h

SMILES	CC50 at 24 h [µM]
CCCCC(CC)COC(=O)Cl (stereo not drawn) [2-Ethylhexyl chloroformate]	> 90

same assay, conditions: rat, gh3-tre-luc cells, AC50 (uM) modified / 1000, Tox21_110001=Tox21_201652; viability, 1 nM T3 present, 24 h

SMILES	CC50 at 24 h [µM]
O=C1C(Cl)=C(Cl)C(=O)c2ccccc21 [Dichlone]	31.4

same assay, conditions: rat, gh3-tre-luc cells, AC50 (uM) modified / 1000, Tox21_110001=Tox21_301256; viability, 1 nM T3 present, 24 h

SMILES	CC50 at 24 h [µM]
CC(=O)c1cc2c(cc1C)C(C)(C)C(C)CC2(C)C (stereo not drawn) [6-Acetyl-1,1,2,4,4,7-hexamethyltetralin]	45.6

same assay, conditions: rat, gh3-tre-luc cells, AC50 (uM) modified / 1000, Tox21_110001=Tox21_303031; viability, 1 nM T3 present, 24 h

SMILES	CC50 at 24 h [µM]
O=C1C(Cl)=C(Cl)C(=O)c2ccccc21 [Dichlone]	7.73
